In patent US7521472B2, “Crystal of two-ring heterocyclic sulfonamide compound” (Eisai R&D Management Co., Ltd., priority 2004, dated 2009):

Tests used:
Assay type in all cases: physicochemical
[1] = Solubility of α-type and β-type crystals in organic solvents and water (USP 25 method); details: for Solvent amount (ml) required to solve 1 g of compound (1): 25° C. within 30 minutes
Experimental: (§1) The results are shown in Tables 5 to 8. • (1) Test method:
(§2) The solubility in organic solvents and buffer solutions (Britton-Robinson Buffer: ionic strength (I)=0.3) was examined.
(§3) Specifically, according to the method described in USP 25 (U.S. PHARMACOPEIA 25(USP25), p 8, General Notices, Solubility), crystalline N-(3-chloro-1H-indol-7-yl)-4-sulfamoylbenzenesulfonamide was evaluated in terms of solubility in various organic solvents and Britton-Robinson buffers (pH 3, 5, 7, 9, and 11; I=0.3). The amount of each solvent was recorded that was required to solve a 10-mg sample of (N-(3-chloro-1H-indol-7-yl)-4-sulfamoylbenzenesulfonamide) at 25° C. within 30 minutes. In this study, the container was vigorously shaken for 30 seconds every 5 minutes, and the solubility was visually checked. • (2) Results: […]

[2] = Solubility of α-type and β-type crystals in Britton-Robinson buffers (I=0.3); details: for Solvent amount (ml) required to solve 1 g of compound (1): 25° C. within 30 minutes
Experimental: as §1, §2, §3

[3] = Physical properties of the β-type crystal (crystal form stability, hygroscopicity)
[4] = Britton-Robinson Buffer pH 3, I=0.3
[5] = Britton-Robinson Buffer pH 5, I=0.3
[6] = Britton-Robinson Buffer pH 7, I=0.3
[7] = Britton-Robinson Buffer pH 9, I=0.3
[8] = Britton-Robinson Buffer pH 11, I=0.3

| Solvent amount (ml) required to solve 1 g of compound (1) ([1]; 1-octanol) | Solvent amount (ml) required to solve 1 g of compound (1) ([1]; Acetone) | Solvent amount (ml) required to solve 1 g of compound (1) ([1]; Acetonitrile) | Solvent amount (ml) required to solve 1 g of compound (1) ([1]; Ethanol) | Solvent amount (ml) required to solve 1 g of compound (1) ([1]; Ethyl acetate) | Solvent amount (ml) required to solve 1 g of compound (1) ([1]; Heptane) | Solvent amount (ml) required to solve 1 g of compound (1) ([1]; Isopropylether) | Solvent amount (ml) required to solve 1 g of compound (1) ([1]; Methanol) | Solvent amount (ml) required to solve 1 g of compound (1) ([1]; N,N-dimethylformamide) | Solvent amount (ml) required to solve 1 g of compound (1) ([1]; Water) | Solvent amount (ml) required to solve 1 g of compound (1) [2, 4] | Solvent amount (ml) required to solve 1 g of compound (1) [2, 5] | Solvent amount (ml) required to solve 1 g of compound (1) [2, 6] | Solvent amount (ml) required to solve 1 g of compound (1) [2, 7] | Solvent amount (ml) required to solve 1 g of compound (1) [2, 8] | solubility in various organic solvents in comparison with the α-type crystal ([1]; for example, ethanol, ethyl acetate) | hygroscopicity [3] | stability of the crystal form ([3]; transformation into other crystal forms or amorphous forms) | solubility in the buffer solution compared with the α-type crystal ([2]; Britton-Robinson Buffer, ionic strength 0.3) | Structure (SMILES) |
| --- | --- | --- | --- | --- | --- | --- | --- | --- | --- | --- | --- | --- | --- | --- | --- | --- | --- | --- | --- |
| >10000 mL | 21 mL | 97 mL | 1194 mL | 1090 mL | >10000 mL | >10000 mL | 100.4 mL | 9.6 mL | >10000 mL | >10000 mL | >10000 mL | >10000 mL | >10000 mL | 993 mL |  |  |  |  | NS(=O)(=O)c1ccc(S(=O)(=O)Nc2cccc3c(Cl)c[nH]c23)cc1 [compound (1) (α-type crystal), N-(3-chloro-1H-indol-7-yl)-4-sulfamoylbenzenesulfonamide, reference compound] |
| >10000 mL | 14 mL | 74 mL | 373 mL | 322 mL | >10000 mL | >10000 mL | 60 mL | 6 mL | >10000 mL | >10000 mL | >10000 mL | >10000 mL | >10000 mL | 553 mL | high solubility | non hygroscopicity | stable | higher solubility | NS(=O)(=O)c1ccc(S(=O)(=O)Nc2cccc3c(Cl)c[nH]c23)cc1 [compound (1) (β-type crystal), N-(3-chloro-1H-indol-7-yl)-4-sulfamoylbenzenesulfonamide] |
